Assay results from patent US20210179577A1, “AROMATIC SULFONAMIDE DERIVATIVES FOR THE TREATMENT OF ISCHEMIC STROKE” (Bayer Aktiengesellschaft, priority 2017, published 2021).

Legend:
hP2X4 = molecular target: T1, hP2X4 (Homo sapiens, UniProt Q99571); assay: Human P2X4 HEK Cell Electrophysiology Assay B (QPatch); assay type: cell-based; details: ATP 5 microM, -90 mV; read-out: Human P2X4 HEK Cells (QPatch Electrophysiology) avg IC50
T1 construct: expressed in transfected cells; host or cells: HEK-293 mito-Photina, clone 2a/4
T1 sequence (Q99571 1-388): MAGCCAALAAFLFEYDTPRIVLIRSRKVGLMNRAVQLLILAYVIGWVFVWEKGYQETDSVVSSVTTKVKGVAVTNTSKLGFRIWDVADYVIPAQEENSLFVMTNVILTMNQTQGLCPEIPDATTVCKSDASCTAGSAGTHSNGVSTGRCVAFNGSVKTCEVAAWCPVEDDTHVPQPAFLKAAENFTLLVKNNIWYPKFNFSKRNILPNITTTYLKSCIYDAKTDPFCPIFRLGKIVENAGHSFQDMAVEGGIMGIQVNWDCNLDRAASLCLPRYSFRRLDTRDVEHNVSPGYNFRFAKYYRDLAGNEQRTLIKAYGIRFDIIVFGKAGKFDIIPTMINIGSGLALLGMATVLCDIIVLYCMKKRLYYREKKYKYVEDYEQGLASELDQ
Protocol: Cell culture conditions: HEK-293 mito-Photina pcDNA3(neo-)/pPURO N/pcDNA3_P2RX4, clone 2a/4 (HEK-293 mito-Photina/hP2RX4) cells were cultured in EMEM Minimum Essential Medium Eagle with Earl's salts Balanced Salt Solution (BioWhittaker cat. BE12-125F) supplemented with 5 mL of 200 mM Ultraglutaminel (BioWhittaker cat. BE17-605E/U1), 5 mL of 100× Penicillin/Streptomycin (BioWhittaker cat. DE17-602E; final concentration 1%), 4 mL of 50 mg/mL G418 (Sigma cat. G8168-100 mL; final concentration 400 μg/mL), 10 μL of 10 mg/mL Puromicin (InvivoGen cat. ant-pr-1; final concentration 0.2 μg/mL) and 50 mL of Fetal Bovine Serum (Sigma cat. F7524; final concentration 10%).
Experimentalprotocol: HEK-293 cell lines are seeded 72 or 96 hours before experiment, at a concentration of 5 or 2.5 million cells, respectively onto a T225 flask. Just before the experiments cells are washed twice with D-PBS w/o Ca2+/Mg2+(Euroclone cat. ECB4004L) and detached from the flask with trypsin-EDTA (Sigma, cat. T4174 diluted 1/10). Cells are then re-suspended in the suspension solution: 25 mL EX-CELL ACF CHO medium (Sigma, cat. C5467); 0.625 mL HEPES (BioWhittaker, cat. BE17-737E); 0.25 mL of 100× Penicillin/Streptomycin (BioWhittaker, cat. DE17-602E), 0.1 mL of Soybean Trypsin Inhibitor 10 mg/mL (Sigma, cat. T6522) and placed on the QPatch 16X.
Compound preparation and storage: Compound stock solutions (10 mM; 100% DMSO; stored at −20° C.) were used. Fresh solutions from stock (1 or 3 mM, 100% DMSO) were prepared just before the experiments (0.1% final DMSO concentration).
Patch clamp analysis with QPatch16X (FIG. 1): Standard whole-cell voltage clamp experiments are performed at room temperature using the multihole technology.
For the voltage clamp experiments on hP2X4, data are sampled at 2 KHz. After establishment of the seal and the passage in the whole cell configuration, the cells are held at −90 mV and the hP2X4 current is evoked by the agonist in the absence (vehicle period, i.e. 0.1% DMSO) or in the presence of the compound under investigation at increasing concentrations; see the application protocol in FIG. 1.
Output: the maximum inward current induced by the agonist (ATP 5 microM).
The intracellular solution contained (mM) 135 CsF, 10 NaCl, 1 EGTA, 10 HEPES (pH 7.2 with CsOH) whereas the extracellular solution (mM) 145 NaCl, 4 KCl, 0.5 MgCl2, 1 CaCl2, […], 10 Glucose (pH 7.4 with NaOH).
For data collection, the Sophion software was used and the analysis was performed off-line using Excel and GraphPad Prism.
When possible, i.e. when the % of inhibition with the highest concentration tested was more than 50%, the dose-response curves data were fitted with the following equation:
[X is log of concentration; Y is normalized response (100% down to 0%, decreasing as X increases); Log IC50 same log units as X; HillSlope is unitless slope factor or hill slope]

human P2X4 = molecular target: T2, human P2X4 (Homo sapiens, UniProt Q99571); assay: Human P2X4 HEK Cell Electrophysiology Assay A (PatchLiner); assay type: cell-based; set-up: expressed in transfected cells; host or cells: HEK293; details: ATP 5 μM, -80 mV; read-out: Human P2X4 HEK Cells (PatchLiner Electrophysiology) avg IC50
T2 sequence (Q99571 1-388): T1 sequence (Q99571 1-388)
Protocol: HEK293 cells stably expressing human P2X4 were seeded in T75 cell culturing flasks at a density of 7*106 cells and incubated overnight. P2X4 function was assayed using the automated patch clamp platform PatchLiner (Nanion) in single hole mode. Composition of extracellular buffer was (in mM) NaCl 145, KCl 4, HEPES 10, CaCl2) 1, MgCl2 0.5, D-glucose monohydrate 10, pH=7.4. The intracellular buffer contained (in mM): CsF 135, EGTA 1, HEPES 10, NaCl 10, pH 7.2. On the day of the assay, cells were harvested using Accumax (Sigma) and were resuspended in extracellular buffer. The ligand agonist, adenosine 5′-trisphosphate (ATP, 5 μM) was added in a volume of 5 μL, directly washed off by extracellular buffer (40 μL). The cells were voltage clamped at −80 mV and ligand was applied every 5 min. for 20 min. Over this period the agonist response was stable and compounds were measured in single concentration per well mode. Compounds diluted in extracellular buffer (final assay DMSO concentration 0.3%) were added in a volume of 40 μL and allowed to incubate for 8 min at room temperature. The data was analyzed based on the decrease in peak current amplitude and normalized to the agonist control. Mean values were plotted in Excel XLFit to determine IC50 values, percentage of maximal inhibition and the Hill coefficients.

SMILES | IC50 (hP2X4) | IC50 (human P2X4)
NS(=O)(=O)c1cc(NC(=O)Cc2ccccc2Cl)ccc1-c1cnn(C(F)F)c1 [Example 326, 2-(2-Chlorophenyl)-N-{4-[1-(difluoromethyl)-1H-pyrazol-4-yl]-3-sulfamoylphenyl}acetamide] | 51 nM | 57 nM
NS(=O)(=O)c1cc(NC(=O)Cc2ccccc2Cl)ccc1-n1cc(F)cn1 [Example 26, 2-(2-Chlorophenyl)-N-[4-(4-fluoro-1H-pyrazol-1-yl)-3-sulfamoylphenyl]acetamide] | 222 nM | –
N#Cc1cnn(-c2ccc(NC(=O)Cc3ccccc3Cl)cc2S(N)(=O)=O)c1 [Example 39, 2-(2-Chlorophenyl)-N-[4-(4-cyano-1H-pyrazol-1-yl)-3-sulfamoylphenyl]acetamide] | – | 138 nM

Now from value to compound:

IC50 (hP2X4) | IC50 (human P2X4) | SMILES
157 nM | 320 nM | NS(=O)(=O)c1cc(NC(=O)Cc2ccccc2Cl)cnc1-n1cc(C(F)(F)F)cn1 [Example 380, 2-(2-Chlorophenyl)-N-{5-sulfamoyl-6-[4-(trifluoromethyl)-1H-pyrazol-1-yl]pyridin-3-yl}acetamide]
278 nM | 111 nM | NS(=O)(=O)c1cc(NC(=O)Cc2ccccc2Cl)ccc1-n1cc(C(F)(F)F)cn1 [Example 19, 2-(2-Chlorophenyl)-N-{3-sulfamoyl-4-[4-(trifluoromethyl)-1H-pyrazol-1-yl]phenyl}acetamide]
